Test results: US5567692A, “9-[(substituted glycyl) amido)]-6-demethyl-6-deoxytetracyclines” (priority 1995, dated 1996)
Structures can show the parent of a compound that is named as a salt.

Experiments:
[1] = test system: Staphylococcus aureus, (methicillin-susceptible); test: MIC range, recent clinical and veterinary isolates; format: cell-based; settings: Staphylococcus aureus, 18 h, read-out: MIC Range
[2] = test system: E. coli UBMS 89-2 Tet sens.; test: MIC, agar dilution; format: cell-based; settings: E. coli UBMS 89-2 Tet sens.
S. aureus UBMS 88-4 = test: MIC, agar dilution; format: cell-based; settings: Staphylococcus aureus, UBMS884, 18 h
Citrobacter freundii = test: MIC range, recent clinical and veterinary isolates; format: cell-based; settings: 18 h, [10] isolates, read-out: MIC Range
Streptococcus agalactiae = test: MIC range, recent clinical and veterinary isolates; format: cell-based; settings: 18 h, read-out: MIC Range
Clostridium difficile = test: MIC range, recent clinical and veterinary isolates; format: cell-based; settings: Clostridioides difficile, 18 h; Clostridium difficile, [12] isolates; read-out: MIC Range
[3] = test system: Pasturella multocida (Veterinary); test: MIC range, recent clinical and veterinary isolates; format: cell-based; settings: 18 h, [17] isolates
Serratia marcescens = test: MIC range, recent clinical and veterinary isolates; format: cell-based; settings: 18 h, [10] isolates, read-out: MIC Range
[4] = test system: S. aureus UBMS 88-7 Tet K; test: microbe, parasite or virus in culture; format: cell-based; settings: dihydrochloride
S. aureus NEMC 8769 = test: MIC, agar dilution; format: cell-based
Enterobacter aerogenes = test: MIC range, recent clinical and veterinary isolates; format: cell-based; settings: Klebsiella aerogenes, 18 h; Enterobacter aerogenes, [10] isolates; read-out: MIC Range
[5] = test system: Escherichia coli (Veterinary); test: MIC range, recent clinical and veterinary isolates; format: cell-based; settings: 18 h, [15] isolates
Enterococcus faecalis = test: MIC range, recent clinical and veterinary isolates; format: cell-based; settings: 18 h, read-out: MIC Range
Streptococcus pneumoniae = test: MIC range, recent clinical and veterinary isolates; format: cell-based; settings: 18 h, [10] isolates, read-out: MIC Range
E. coli BAJ9003 IMP MUT = test: microbe, parasite or virus in culture; format: cell-based; settings: E. coli BAJ9003 IMP MUT
[6] = test system: E. coli MC 4100 TNIOC Tet B; test: microbe, parasite or virus in culture; format: cell-based; settings: E. coli MC 4100 TNIOC Tet B
[7] = test system: Salmonella choleraesuis (Veterinary); test: MIC range, recent clinical and veterinary isolates; format: cell-based; settings: Salmonella enterica, 18 h, [15] isolates
[8] = test system: tetracycline sensitive and resistant Gram-positive and Gram-negative bacteria; test: In vitro antibacterial evaluation, summary in words; format: cell-based; settings: summary of Tables I, II and V, dihydrochloride
Pseudomonas aeruginosa = test: MIC range, recent clinical and veterinary isolates; format: cell-based; settings: 18 h, [10] isolates, read-out: MIC Range
[9] = test system: Bacteroides fragilis group; test: MIC range, recent clinical and veterinary isolates; format: cell-based; settings: Bacteroides fragilis, 18 h, read-out: MIC Range
Moraxella catarrhalis = test: MIC range, recent clinical and veterinary isolates; format: cell-based; settings: 18 h, [18] isolates, read-out: MIC Range
E. coli UBMS 88-1 Tet B = test: microbe, parasite or virus in culture; format: cell-based; settings: E. coli UBMS 88-1 Tet B
S. marcescens FPOR 8733 = test: MIC, agar dilution; format: cell-based; settings: dihydrochloride
S. aureus ROSE (MP) = test: MIC, agar dilution; format: cell-based; settings: Staphylococcus aureus, 18 h, read-out: MIC
[10] = test system: S. aureus UBMS 90-1 Tet M; test: microbe, parasite or virus in culture; format: cell-based; settings: S. aureus UBMS 90-1 Tet M; dihydrochloride
E. coli PRP1 Tet A = test: microbe, parasite or virus in culture; format: cell-based; settings: dihydrochloride
Clostridium spp. = test: MIC range, recent clinical and veterinary isolates; format: cell-based; settings: 18 h, [9] isolates
Salmonella spp. = test: MIC range, recent clinical and veterinary isolates; format: cell-based; settings: 18 h, [11] isolates
[11] = test system: Enterococcus spp, (Vancomycin-resistant); test: MIC range, recent clinical and veterinary isolates; format: cell-based; settings: 18 h, [8] isolates
Enterococcus faecium = test: MIC range, recent clinical and veterinary isolates; format: cell-based; settings: 18 h, read-out: MIC Range
Proteus mirabilis = test: MIC range, recent clinical and veterinary isolates; format: cell-based; settings: 18 h, read-out: MIC Range
E. coli J3272 Tet C = test: microbe, parasite or virus in culture; format: cell-based; settings: dihydrochloride
S. aureus IVES 2943 = test: MIC, agar dilution; format: cell-based; settings: S. aureus IVES 2943; dihydrochloride
Anaerobic Gram(+)Cocci = test: MIC range, recent clinical and veterinary isolates; format: cell-based; settings: 18 h; Anaerobic Gram(+)Cocci, [15] isolates; read-out: MIC Range
Xanthamonas maltophilia = test: MIC range, recent clinical and veterinary isolates; format: cell-based; settings: 18 h, read-out: MIC Range
[12] = test system: Escherichia coli UBMS 90-4 (Tet M); test: Acute lethal infection in mice, E. coli UBMS 90-4; settings: in Mus musculus, iv, 168 h
[13] = test system: S. aureus UBMS 90-2 Tet M; test: microbe, parasite or virus in culture; format: cell-based; settings: S. aureus UBMS 90-2 Tet M; dihydrochloride
[14] = test system: Staphylococcus aureus, (methicillin-resistant); test: MIC range, recent clinical and veterinary isolates; format: cell-based; settings: 18 h, [15] isolates
Enterococcus 12201 = test: MIC, agar dilution; format: cell-based; settings: Enterococcus 12201
Escherichia coli = test: MIC range, recent clinical and veterinary isolates; format: cell-based; settings: 18 h, read-out: MIC Range
Citrobacter diversus = test: MIC range, recent clinical and veterinary isolates; format: cell-based; settings: Citrobacter koseri, 18 h; Citrobacter diversus, [10] isolates; read-out: MIC Range
[15] = test system: Ps. aeruginosa ATCC 27853; test: MIC, agar dilution; format: cell-based; settings: Ps. aeruginosa ATCC 27853; dihydrochloride
Providencia spp. = test: MIC range, recent clinical and veterinary isolates; format: cell-based; settings: 18 h, read-out: MIC Range

CN(C)CC(=O)Nc1ccc2c(c1O)C(=O)C1=C(O)[C@]3(O)C(=O)C(C(N)=O)=C(O)[C@@H](N(C)C)C3CC1C2 (stereo partly drawn) [CC, [4S-(4alpha,12aalpha)]-4-(Dimethylamino)-9-[[(dimethylamino)acetyl]amino]-1,4,4a,5,5a,6,11,12a-octahydro-3,10,12,12a-tetrahydroxy-1,11-dioxo-2-naphthacenecarboxamide dihydrochloride]
MIC [1]: 0.06 to 0.25 µg/mL
MIC [2]: 0.25 µg/mL
MIC (S. aureus UBMS 88-4): 0.03 µg/mL
MIC (Citrobacter freundii): 0.5 to 8 µg/mL
MIC (Streptococcus agalactiae): 0.12 to 0.25 µg/mL
MIC (Clostridium difficile): 0.06 to 0.12 µg/mL
MIC [3]: 0.03 to 0.25 µg/mL
MIC (Serratia marcescens): 2 to 8 µg/mL
MIC [4]: 0.5 µg/mL
MIC (S. aureus NEMC 8769): < 0.015 µg/mL
MIC (Enterobacter aerogenes): 0.25 to 1 µg/mL
MIC [5]: 0.25 to 4 µg/mL
MIC (Enterococcus faecalis): 0.03 to 0.25 µg/mL
MIC (Streptococcus pneumoniae): 0.03 to 0.5 µg/mL
MIC (E. coli BAJ9003 IMP MUT): no growth
MIC [6]: 0.25 µg/mL
MIC [7]: 0.5 to 8 µg/mL
in vitro antibacterial activity (in words) [8]: excellent in vitro activity
in vitro antibacterial activity (in words) ([8]; listed as 9-[(N,N-dimethylglycyl)amido)]-6-demethyl-6-deoxytetracycline): potent in vitro antibacterial activity
MIC (Pseudomonas aeruginosa): 2 to 16 µg/mL
MIC [9]: 0.12 to 2 µg/mL
MIC (Moraxella catarrhalis): 0.06 to 0.12 µg/mL
MIC (E. coli UBMS 88-1 Tet B): 0.25 µg/mL
MIC (S. marcescens FPOR 8733): 2 µg/mL
MIC (S. aureus ROSE (MP)): 1 µg/mL
MIC [10]: 0.06 µg/mL
MIC (E. coli PRP1 Tet A): 0.5 µg/mL
MIC (Clostridium spp.): 0.03 to 0.12 µg/mL
MIC (Salmonella spp.): 0.25 to 0.5 µg/mL
MIC [11]: 0.03 to 0.12 µg/mL
MIC (Enterococcus faecium): 0.06 to 0.5 µg/mL
MIC (Proteus mirabilis): 0.12 to 2 µg/mL
MIC (E. coli J3272 Tet C): 0.25 µg/mL
MIC (S. aureus IVES 2943): 0.5 µg/mL
MIC (Anaerobic Gram(+)Cocci): 0.015 to 0.12 µg/mL
MIC (Xanthamonas maltophilia): 1 to 8 µg/mL
ED50 [12]: 1.6 mg/kg
MIC [13]: 0.06 µg/mL
MIC [14]: 0.12 to 4 µg/mL
MIC (Enterococcus 12201): 0.03 µg/mL
MIC (Escherichia coli): 0.25 to 4 µg/mL
MIC (Citrobacter diversus): 0.25 to 1 µg/mL
MIC [15]: 4 µg/mL
MIC (Providencia spp.): 1 to 8 µg/mL
